Where two headings read alike, the source gives them in different places.
How the values were obtained:
[1] = test system: HCT116 (colorectal carcinoma); assay: MTT antiproliferation assay, HCT116; type: cell-based; settings: Homo sapiens, HCT-116, read-out: IC50 (µM) HCT- 116
[2] = biological target: CDK12 (Homo sapiens, UniProt Q9NYV4); assay: CDK12 inhibition assay; type: biochemical
[3] = test system: WI- 38 (embryonic lung fibroblasts); assay: MTT assay, WI-38 fibroblasts; type: cell-based; settings: Homo sapiens, WI-38, read-out: IC50 (µM) WI- 38
[4] = test system: MCF7 (mammary gland breast cancer); assay: MTT antiproliferation assay, MCF7; type: cell-based; settings: Homo sapiens, MCF7, read-out: IC50 (µM) MCF- 7
[5] = test system: HeLa (cervical epithelioid carcinoma); assay: MTT antiproliferation assay, HeLa; type: cell-based, human
[6] = test system: HepG2 (hepatocellular carcinoma); assay: MTT antiproliferation assay, HepG2; type: cell-based, human
[7] = biological target: CDK9 (Homo sapiens, UniProt P50750); assay: biochemical
Chain of CDK9 (P50750 whole entry): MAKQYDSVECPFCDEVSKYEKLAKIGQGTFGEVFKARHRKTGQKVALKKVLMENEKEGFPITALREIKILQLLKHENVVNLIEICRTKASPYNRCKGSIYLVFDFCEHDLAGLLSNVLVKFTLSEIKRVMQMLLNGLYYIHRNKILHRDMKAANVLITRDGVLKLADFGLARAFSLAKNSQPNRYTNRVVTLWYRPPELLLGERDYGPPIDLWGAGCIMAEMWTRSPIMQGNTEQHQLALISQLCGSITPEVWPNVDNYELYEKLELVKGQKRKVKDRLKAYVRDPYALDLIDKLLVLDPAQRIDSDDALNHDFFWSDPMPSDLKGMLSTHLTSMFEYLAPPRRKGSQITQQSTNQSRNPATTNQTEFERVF
Chain of CDK9 (O60563 whole entry partner): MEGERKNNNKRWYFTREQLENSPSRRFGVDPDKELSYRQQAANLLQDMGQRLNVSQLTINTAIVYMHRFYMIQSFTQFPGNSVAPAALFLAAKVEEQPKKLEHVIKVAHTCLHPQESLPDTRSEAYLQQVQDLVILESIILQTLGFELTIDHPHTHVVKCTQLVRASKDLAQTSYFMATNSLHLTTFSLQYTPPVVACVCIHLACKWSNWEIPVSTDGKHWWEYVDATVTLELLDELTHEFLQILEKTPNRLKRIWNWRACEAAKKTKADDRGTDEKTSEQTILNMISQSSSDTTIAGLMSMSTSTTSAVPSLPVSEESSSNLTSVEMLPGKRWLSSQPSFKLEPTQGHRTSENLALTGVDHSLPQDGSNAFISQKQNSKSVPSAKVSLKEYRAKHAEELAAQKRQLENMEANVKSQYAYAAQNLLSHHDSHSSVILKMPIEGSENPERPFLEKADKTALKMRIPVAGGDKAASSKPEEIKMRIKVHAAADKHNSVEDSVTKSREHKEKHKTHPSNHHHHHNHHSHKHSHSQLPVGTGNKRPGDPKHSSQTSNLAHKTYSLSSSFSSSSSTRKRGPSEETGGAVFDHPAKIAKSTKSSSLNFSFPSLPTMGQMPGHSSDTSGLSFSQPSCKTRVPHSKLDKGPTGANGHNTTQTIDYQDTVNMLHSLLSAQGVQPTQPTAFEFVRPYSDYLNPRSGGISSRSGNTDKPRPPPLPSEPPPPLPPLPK

[8] = Homo sapiens, HeLa, read-out: IC50 (µM) Hela, MTT assay, HeLa cells
[9] = Homo sapiens, HepG2, read-out: IC50 (µM) HePG- 2, MTT assay, HepG2 cells
[10] = read-out: IC50 (µM) Hela, MTT assay, HeLa cells

Chain of CDK12 (Q9NYV4 whole entry): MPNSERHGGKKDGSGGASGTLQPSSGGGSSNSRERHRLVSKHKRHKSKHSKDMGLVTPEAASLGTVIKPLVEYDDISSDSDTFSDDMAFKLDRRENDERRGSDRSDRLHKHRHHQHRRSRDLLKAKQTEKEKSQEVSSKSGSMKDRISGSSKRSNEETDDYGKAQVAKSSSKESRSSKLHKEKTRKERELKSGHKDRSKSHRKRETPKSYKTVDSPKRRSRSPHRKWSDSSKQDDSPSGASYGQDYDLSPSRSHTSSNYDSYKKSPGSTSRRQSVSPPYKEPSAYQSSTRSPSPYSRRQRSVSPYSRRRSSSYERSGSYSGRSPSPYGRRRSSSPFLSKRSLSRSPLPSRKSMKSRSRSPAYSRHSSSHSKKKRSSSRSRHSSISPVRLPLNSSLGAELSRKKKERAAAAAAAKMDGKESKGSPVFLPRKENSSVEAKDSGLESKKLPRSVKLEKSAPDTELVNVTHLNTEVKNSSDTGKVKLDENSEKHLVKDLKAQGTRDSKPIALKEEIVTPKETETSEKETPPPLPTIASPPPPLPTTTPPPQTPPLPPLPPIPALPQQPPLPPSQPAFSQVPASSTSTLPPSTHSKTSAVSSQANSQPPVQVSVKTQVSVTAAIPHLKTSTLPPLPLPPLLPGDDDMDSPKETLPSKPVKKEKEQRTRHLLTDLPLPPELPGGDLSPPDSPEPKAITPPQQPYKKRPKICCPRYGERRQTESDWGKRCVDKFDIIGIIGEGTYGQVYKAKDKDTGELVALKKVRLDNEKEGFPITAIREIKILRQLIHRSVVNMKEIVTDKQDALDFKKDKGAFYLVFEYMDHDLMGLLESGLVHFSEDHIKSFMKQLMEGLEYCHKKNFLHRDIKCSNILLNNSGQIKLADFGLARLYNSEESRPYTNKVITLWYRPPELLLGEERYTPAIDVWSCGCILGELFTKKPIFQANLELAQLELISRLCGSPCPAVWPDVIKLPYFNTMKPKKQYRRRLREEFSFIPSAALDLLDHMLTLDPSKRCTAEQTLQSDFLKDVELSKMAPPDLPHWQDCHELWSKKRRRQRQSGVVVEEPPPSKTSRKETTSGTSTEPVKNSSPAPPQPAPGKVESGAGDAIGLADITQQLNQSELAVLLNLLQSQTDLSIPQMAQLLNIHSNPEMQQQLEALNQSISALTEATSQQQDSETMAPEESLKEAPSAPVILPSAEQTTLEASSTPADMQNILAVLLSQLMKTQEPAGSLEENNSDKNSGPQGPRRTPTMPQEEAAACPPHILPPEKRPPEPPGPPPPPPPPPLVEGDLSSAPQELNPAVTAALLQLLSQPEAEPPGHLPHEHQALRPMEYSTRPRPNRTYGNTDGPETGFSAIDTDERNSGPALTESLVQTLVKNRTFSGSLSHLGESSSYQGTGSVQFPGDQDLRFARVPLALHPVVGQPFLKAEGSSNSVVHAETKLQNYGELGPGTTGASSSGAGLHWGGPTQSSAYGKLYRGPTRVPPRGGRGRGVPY
Chain of CDK12 (O75909 whole entry partner): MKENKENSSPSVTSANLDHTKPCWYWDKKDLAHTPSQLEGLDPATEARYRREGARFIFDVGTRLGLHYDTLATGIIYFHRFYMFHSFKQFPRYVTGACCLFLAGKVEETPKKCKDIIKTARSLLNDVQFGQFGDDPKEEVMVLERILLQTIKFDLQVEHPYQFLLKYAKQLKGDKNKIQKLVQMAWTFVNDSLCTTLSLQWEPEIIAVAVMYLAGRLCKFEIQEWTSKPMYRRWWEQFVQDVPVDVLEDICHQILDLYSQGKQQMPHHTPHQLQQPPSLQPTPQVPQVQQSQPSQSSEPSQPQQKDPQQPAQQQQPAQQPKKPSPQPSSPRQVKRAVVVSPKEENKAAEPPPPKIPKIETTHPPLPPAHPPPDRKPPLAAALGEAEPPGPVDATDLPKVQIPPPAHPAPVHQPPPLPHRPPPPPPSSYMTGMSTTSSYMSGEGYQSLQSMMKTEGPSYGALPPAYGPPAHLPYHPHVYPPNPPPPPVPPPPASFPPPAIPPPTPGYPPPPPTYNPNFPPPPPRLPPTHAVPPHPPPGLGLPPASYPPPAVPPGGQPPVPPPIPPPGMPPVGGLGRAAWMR

Row | Structure (SMILES) | IC50 [1] [µM] | IC50 [2] [µM] | IC50 [3] [µM] | IC50 [4] [µM] | IC50 [5, 8] [µM] | IC50 [6, 9] [µM] | IC50 [7] [µM] | IC50 ([6]; read-out: IC50 (µM) HePG- 2, MTT assay, HepG2 cells) [µM] | IC50 [5, 10] [µM]
1 | NS(=O)(=O)c1cccc(Nc2ncc(C(F)(F)F)c(-n3c(C4CC4)nc4ccccc43)n2)c1 [Compound 4 t, 3-((4-(2-cyclopropyl-1H-benzo[d]imidazol-1-yl)− 5-(trifluoromethyl)pyrimidin-2-yl)amino)benzenesulfonamide] | 38.8 ± 2.3 | 0.533 ± 0.021 | > 50 | 27.8 ± 1.8 | 30.3 ± 1.9 | 29.3 ± 1.9 | 0.121 ± 0.005 | – | –
2 | Cc1cnc(Nc2cccc(S(N)(=O)=O)c2)nc1-n1cnc2ccccc21 [Compound 4c, 3-((4-(1H-benzo[d]imidazol-1-yl)− 5-methylpyrimidin-2-yl)amino)benzenesulfonamide] | > 50 | 0.14 ± 0.005 | > 50 | > 50 | 49.8 ± 2.7 | 44.4 ± 2.5 | 0.041 ± 0.002 | – | –
3 | Cc1cnc(Nc2cccc(S(N)(=O)=O)c2)nc1-n1c(C(F)(F)F)nc2ccccc21 [Compound 4k, 3-((5-methyl-4-(2-(trifluoromethyl)− 1H-benzo[d]imidazol-1-yl)pyrimidin-2-yl)amino)benzenesulfonamide] | 48.7 ± 2.7 | 1.21 ± 0.047 | > 50 | 39.8 ± 2.2 | 42.8 ± 2.3 | 34.1 ± 2.1 | 5.47 ± 0.236 | – | –
4 | CC(C)c1nc2ccccc2n1-c1nc(Nc2cccc(S(N)(=O)=O)c2)ncc1F [Compound 4n, 3-((5-fluoro-4-(2-isopropyl-1H-benzo[d]imidazol-1-yl)pyrimidin-2-yl)amino)benzenesulfonamide] | 43.3 ± 2.5 | 0.179 ± 0.007 | 76.1 ± 3.9 | 32.4 ± 2 | 36.4 ± 2.1 | 19.8 | 0.392 ± 0.017 | 19.9 ± 1.4 | –
5 | NS(=O)(=O)c1cccc(Nc2nccc(-n3c(C4CC4)nc4ccccc43)n2)c1 [Compound 4q, 3-((4-(2-cyclopropyl-1H-benzo[d]imidazol-1-yl)pyrimidin-2-yl)amino)benzenesulfonamide] | 13.7 ± 1 | 0.074 ± 0.003 | 31.4 ± 2.1 | 8.19 ± 0.5 | 9.71 ± 0.7 | 5.88 ± 0.4 | 0.057 ± 0.002 | – | –
6 | Cc1nc2ccccc2n1-c1nc(Nc2cccc(S(N)(=O)=O)c2)ncc1C(F)(F)F [Compound 4 h, 3-((4-(2-methyl-1H-benzo[d]imidazol-1-yl)− 5-(trifluoromethyl)pyrimidin-2-yl)amino)benzenesulfonamide] | > 50 | 0.153 ± 0.006 | > 50 | > 50 | > 50 | > 50 | 0.05 ± 0.002 | – | –
7 | NS(=O)(=O)c1cccc(Nc2ncc(C(F)(F)F)c(-n3c(C(F)(F)F)nc4ccccc43)n2)c1 [Compound 4 l, 3-((5-(trifluoromethyl)− 4-(2-(trifluoromethyl)− 1H-benzo[d]imidazol-1-yl)pyrimidin-2-yl)amino)benzenesulfonamide] | > 50 | 0.899 ± 0.035 | 18.3 ± 1.3 | > 50 | > 50 | > 50 | 1.67 ± 0.072 | – | –
8 | Cc1cnc(Nc2cccc(S(N)(=O)=O)c2)nc1-n1c(C)nc2ccccc21 [Compound 4 g, 3-((5-methyl-4-(2-methyl-1H-benzo[d]imidazol-1-yl)pyrimidin-2-yl)amino)benzenesulfonamide] | 9.34 ± 0.8 | 0.071 ± 0.003 | > 50 | 5.08 ± 0.3 | 12.6 | 7.59 ± 0.6 | 0.114 ± 0.005 | – | 12.7 ± 0.9
9 | NS(=O)(=O)c1cccc(Nc2ncc(C(F)(F)F)c(-n3cnc4ccccc43)n2)c1 [Compound 4 d, 3-((4-(1H-benzo[d]imidazol-1-yl)− 5-(trifluoromethyl)pyrimidin-2-yl)amino)benzenesulfonamide] | > 50 | 1.33 ± 0.052 | > 50 | > 50 | > 50 | > 50 | 0.782 ± 0.034 | – | –
10 | NS(=O)(=O)c1cccc(Nc2nccc(-n3c(C(F)(F)F)nc4ccccc43)n2)c1 [Compound 4i, 3-((4-(2-(trifluoromethyl)− 1H-benzo[d]imidazol-1-yl)pyrimidin-2-yl)amino)benzenesulfonamide] | > 50 | 0.365 ± 0.014 | > 50 | > 50 | > 50 | 48.3 ± 2.7 | 1.09 ± 0.047 | – | –
11 | CC(C)c1nc2ccccc2n1-c1ccnc(Nc2cccc(S(N)(=O)=O)c2)n1 [Compound 4 m, 3-((4-(2-isopropyl-1H-benzo[d]imidazol-1-yl)pyrimidin-2-yl)amino)benzenesulfonamide] | 7.19 ± 0.5 | 0.06 ± 0.002 | > 50 | 2.18 ± 0.1 | 6.39 ± 0.4 | 3.56 ± 0.2 | 0.04 ± 0.002 | – | –
12 | Cc1cnc(Nc2cccc(S(N)(=O)=O)c2)nc1-n1c(C(C)C)nc2ccccc21 [Compound 4o, 3-((4-(2-isopropyl-1H-benzo[d]imidazol-1-yl)− 5-methylpyrimidin-2-yl)amino)benzenesulfonamide] | > 50 | 1.88 ± 0.073 | > 50 | > 50 | > 50 | > 50 | 1.05 ± 0.045 | – | –
13 | NS(=O)(=O)c1cccc(Nc2ncc(F)c(-n3cnc4ccccc43)n2)c1 [Compound 4b, 3-((4-(1H-benzo[d]imidazol-1-yl)− 5-fluoropyrimidin-2-yl)amino)benzenesulfonamide] | 24.7 ± 1.7 | 0.566 ± 0.022 | 46.7 ± 2.6 | 14.2 ± 1.2 | 17 ± 1.3 | 22.3 ± 1.6 | 1.15 ± 0.05 | – | –
14 | Cc1nc2ccccc2n1-c1ccnc(Nc2cccc(S(N)(=O)=O)c2)n1 [Compound 4e, 3-((4-(2-methyl-1H-benzo[d]imidazol-1-yl)pyrimidin-2-yl)amino)benzenesulfonamide] | > 50 | 0.425 ± 0.017 | 39 ± 2.3 | > 50 | > 50 | > 50 | 0.409 ± 0.018 | – | –
15 | COc1cccc2c1C(=O)c1c(O)c3c(c(O)c1C2=O)C[C@@](O)(C(=O)CO)C[C@@H]3O[C@H]1C[C@H](N)[C@H](O)[C@H](C)O1 [Doxorubicin, reference compound] | – | – | – | – | – | 4.5 ± 0.2 | – | – | –
16 | NS(=O)(=O)c1cccc(Nc2nccc(-n3cnc4ccccc43)n2)c1 [Compound 4a, 3-((4-(1H-benzo[d]imidazol-1-yl)pyrimidin-2-yl)amino)benzenesulfonamide] | > 50 | 0.295 ± 0.011 | 25.4 ± 1.8 | > 50 | > 50 | > 50 | 0.396 ± 0.017 | – | –
17 | CC(C)c1nc2ccccc2n1-c1nc(Nc2cccc(S(N)(=O)=O)c2)ncc1C(F)(F)F [Compound 4p, 3-((4-(2-isopropyl-1H-benzo[d]imidazol-1-yl)− 5-(trifluoromethyl)pyrimidin-2-yl)amino)benzenesulfonamide] | > 50 | 0.664 ± 0.026 | 45.3 ± 2.7 | > 50 | > 50 | > 50 | 0.153 ± 0.007 | – | –
18 | NS(=O)(=O)c1cccc(Nc2ncc(F)c(-n3c(C4CC4)nc4ccccc43)n2)c1 [Compound 4r, 3-((4-(2-cyclopropyl-1H-benzo[d]imidazol-1-yl)− 5-fluoropyrimidin-2-yl)amino)benzenesulfonamide] | 29.8 ± 1.9 | 0.104 ± 0.001 | > 50 | 16.2 ± 1.4 | 26.5 ± 1.8 | 11.4 ± 0.9 | 0.242 ± 0.01 | – | –
19 | Cc1cnc(Nc2cccc(S(N)(=O)=O)c2)nc1-n1c(C2CC2)nc2ccccc21 [Compound 4 s, 3-((4-(2-cyclopropyl-1H-benzo[d]imidazol-1-yl)− 5-methylpyrimidin-2-yl)amino)benzenesulfonamide] | > 50 | 0.189 ± 0.007 | 28 ± 2 | 45.7 ± 2.4 | 47.2 ± 2.5 | 38.1 ± 2.3 | 0.408 ± 0.018 | – | –
20 | NS(=O)(=O)c1cccc(Nc2ncc(F)c(-n3c(C(F)(F)F)nc4ccccc43)n2)c1 [Compound 4j, 3-((5-fluoro-4-(2-(trifluoromethyl)− 1H-benzo[d]imidazol-1-yl)pyrimidin-2-yl)amino)benzenesulfonamide] | 16.8 ± 1.2 | 0.104 ± 0.004 | > 50 | 11.7 ± 0.9 | 19.4 | 8.54 ± 0.7 | 0.055 ± 0.002 | – | 19.2 ± 1.5
21 | Cc1nc2ccccc2n1-c1nc(Nc2cccc(S(N)(=O)=O)c2)ncc1F [Compound 4f, 3-((5-fluoro-4-(2-methyl-1H-benzo[d]imidazol-1-yl)pyrimidin-2-yl)amino)benzenesulfonamide] | 33.5 ± 2 | 1.14 ± 0.044 | 41.2 ± 2.5 | 21.7 ± 1.7 | 23.6 ± 1.7 | 15.4 ± 1.2 | 0.762 ± 0.033 | – | –

Source: publication PMC12102023 (Saudi Pharmaceutical Journal : SPJ, 2025)
